The structures appear in SMILES notation. Entries after “also recorded” stand apart in the source; their conditions may differ. Read-outs that look alike come from different tables or passages of the source.

The source of these data is patent US11752122B2 (OKLAHOMA MEDICAL RESEARCH FOUNDATION, priority 2018, dated 2023).

One data set has as its target T1, TGF-β1 (Mus musculus, UniProt P04202).
T1 construct: Active TGF-β1 levels in platelet-rich plasma from NAC-treated (n=6) and -untreated (n=8) mice after in vitro stirring; from tissue; host or cells: mouse platelet-rich plasma (blood)
Kind of data set: Shear-dependent TGF-β1 activation in platelet-rich plasma from NAC-treated mice (ELISA). It is filed as in vivo. The conditions noted are these: PRP from NAC-treated vs control mice, shear force of 1,800 s^−1 for 2 hours, ELISA (FIG. 4A). (In general: An ELISA detects its analyte on a solid surface through an enzyme-linked reagent.)

For data set [1] the following is noted: cited from earlier work.
Data set [2] relates to ascending aortic constriction (AAC) model. Kind of data set: Cardiac fibrosis in ascending aortic constriction (AAC) model. It is filed as in vivo, mice. The conditions noted are these: high shear pressure overload AAC model, NAC treatment (data not shown). The source says:
Ascending Aortic Constriction. Ascending aortic constriction was induced by controlled constriction of the ascending aorta as described previously 26. Briefly, mice were anesthetized with 1.5% isoflurane and the ascending aorta was surgically exposed by a mid-thorax incision. A 2 7-0 suture was placed around both the aorta and an adjacent 27-gauge (0.41 mm OD) needle proximal to the origin of the innominate artery. […] Mice were sacrificed and tissues collected 1 month after the surgery.

In data set [3] the test system is TGF-β1platelet-KO-LDLR mice on HFD. The data set is described as follows: Aortic stenosis progression in TGF-β1platelet-KO-LDLR mice on HFD, echocardiography. The note with it: TGF-β1platelet-KO-LDLR mice on HFD treated with NAC. It is filed as in vivo. The source says: Mice. Hypercholesterolemic mice deficient for low-density lipoprotein receptors (Ldlr−/−), which only express ApoB-100 (Ldlr−/−Apob100/100, LDLR), were obtained from Jackson Laboratories (B6; 129SLdlrtm1HerApobtm2Sgy/J, stock no. 003000). WT C57bl/6 mice were also obtained from the Jackson Laboratory (stock no. 000664) and served as controls. TGF-β1^platelet-KO-LDLR mice (Pf4Cre+Tgfb1f/f;Ldlr−/−Apob100/100;) and TGF-β1^flox-LDLR littermate controls (Tgfb1f/f;Ldlr−/−Apob100/100) were generated by crossing LDLR mice with Pf4Cre+;Tgfb1f/f mice, as shown in FIGS. 7A-B and Supplemental Table 5. […]
Experimental Design. […] Progression and severity (mild/moderate/severe) of AS were monitored at 0, 3, 6 and 9 months by echocardiography using non-invasive ultrasound imaging techniques. […]
Echocardiography. […] Electrode gel was used to enhance the physiologic readings. To ensure accuracy of all echo measurements, physiological parameters were monitored and recordings were only taken if the heart rate was 430-550 beats per minute, respiration was 20-100 breaths per minute, and body temperature was close to 37° C. […]
Measurement of AS parameters using a modified view of ultrasound imaging. […] LVOT was measured from the long-axis view and was used to calculate AV pressure and normalize the cusp separation (Lindman et al., 2016; Meyer et al., 2012). […]

The conditions of data set [4]: cited from earlier work. The source holds these as a separate data set.
Data set [5] concerns aortic valves of LDLR mice on HFD. The data set is described as follows: Histology and immunohistochemical staining of aortic valves of LDLR mice on HFD. It is filed as in vivo. The note with it: LDLR mice at 6 months on HFD, NAC 3-5 and 5-6 months combined, vs untreated. As for the experimental part:
Histology and immunofluorescent staining of aortic valve sections. Mice receiving HFD were euthanized at 6 months and perfused with PBS. Hearts with their attached ascending aorta were excised, fixed in 4% paraformaldehyde for 24 hours and processed for routine paraffin embedding. Tissues were cut in 5 μm thick sections in the middle of the heart to get maximum valve thickness (FIG. 12) and stained with picrosirius red for collagen. For immunofluorescent staining, tissue sections were deparaffinized and rehydrated by immersing in xylene and a series of graded alcohols, followed by heat (97° C.)-induced epitope retrieval using Tris-EDTA buffer, pH 9.0 for 30 minutes. Slides were incubated for 1 hour at RT with blocking buffer (1% BSA+0.3M glycine in Tris-NaCl-Tween buffer) and then incubated overnight at 4° C. with primary antibodies at final concentrations of 0.5 μg/ml. After washing in wash buffer (Tris-NaCl-Tween) and incubation with a fluorescent secondary antibody at RT for 2 hours, slides were washed with wash buffer three times and mounted with a fluorescence mounting medium containing diamidino-2-phenylindole (DAPI) to stain nuclei.
Images were photographed using Ziess 710 Confocal or Nikon eclipse 80i fluorescence microscope. Positively-stained areas and total valve areas in immunohistochemical and histological images were quantified as shown in FIG. 13. Primary antibodies used were anti-phospho-Smad2 (Ser465/467) (AB3849, Millipore), anti-vimentin (ab92547, Abcam), anti-α-SMA (904601, Biolegend), Isolectin B4 (121411, Life Technologies), anti-CD41 (14-0411, eBioscience), anti-CD62P (148301, Biolegend), and anti-collagen (SAB1402151, Sigma). Species-matched secondary antibodies conjugated to Alexa 488, Alexa 594, or Alexa 647 were used. Histology images were analyzed and quantified using ImageJ (NIH).

T1 sequence (P04202 30-278 limits assumed): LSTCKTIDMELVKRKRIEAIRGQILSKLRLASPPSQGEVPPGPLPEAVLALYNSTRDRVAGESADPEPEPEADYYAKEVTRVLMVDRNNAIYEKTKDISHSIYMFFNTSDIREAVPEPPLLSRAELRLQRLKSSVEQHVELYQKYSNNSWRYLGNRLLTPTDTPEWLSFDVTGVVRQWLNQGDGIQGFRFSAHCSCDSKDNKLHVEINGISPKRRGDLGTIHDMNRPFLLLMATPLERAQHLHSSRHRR
T1 sequence (P04202 279-390 limits assumed): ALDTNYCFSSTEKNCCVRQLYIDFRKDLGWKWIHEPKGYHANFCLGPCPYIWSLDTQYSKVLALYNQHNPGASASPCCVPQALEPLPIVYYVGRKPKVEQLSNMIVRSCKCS
T1 sequence (Q8CG19 24-1712 partner): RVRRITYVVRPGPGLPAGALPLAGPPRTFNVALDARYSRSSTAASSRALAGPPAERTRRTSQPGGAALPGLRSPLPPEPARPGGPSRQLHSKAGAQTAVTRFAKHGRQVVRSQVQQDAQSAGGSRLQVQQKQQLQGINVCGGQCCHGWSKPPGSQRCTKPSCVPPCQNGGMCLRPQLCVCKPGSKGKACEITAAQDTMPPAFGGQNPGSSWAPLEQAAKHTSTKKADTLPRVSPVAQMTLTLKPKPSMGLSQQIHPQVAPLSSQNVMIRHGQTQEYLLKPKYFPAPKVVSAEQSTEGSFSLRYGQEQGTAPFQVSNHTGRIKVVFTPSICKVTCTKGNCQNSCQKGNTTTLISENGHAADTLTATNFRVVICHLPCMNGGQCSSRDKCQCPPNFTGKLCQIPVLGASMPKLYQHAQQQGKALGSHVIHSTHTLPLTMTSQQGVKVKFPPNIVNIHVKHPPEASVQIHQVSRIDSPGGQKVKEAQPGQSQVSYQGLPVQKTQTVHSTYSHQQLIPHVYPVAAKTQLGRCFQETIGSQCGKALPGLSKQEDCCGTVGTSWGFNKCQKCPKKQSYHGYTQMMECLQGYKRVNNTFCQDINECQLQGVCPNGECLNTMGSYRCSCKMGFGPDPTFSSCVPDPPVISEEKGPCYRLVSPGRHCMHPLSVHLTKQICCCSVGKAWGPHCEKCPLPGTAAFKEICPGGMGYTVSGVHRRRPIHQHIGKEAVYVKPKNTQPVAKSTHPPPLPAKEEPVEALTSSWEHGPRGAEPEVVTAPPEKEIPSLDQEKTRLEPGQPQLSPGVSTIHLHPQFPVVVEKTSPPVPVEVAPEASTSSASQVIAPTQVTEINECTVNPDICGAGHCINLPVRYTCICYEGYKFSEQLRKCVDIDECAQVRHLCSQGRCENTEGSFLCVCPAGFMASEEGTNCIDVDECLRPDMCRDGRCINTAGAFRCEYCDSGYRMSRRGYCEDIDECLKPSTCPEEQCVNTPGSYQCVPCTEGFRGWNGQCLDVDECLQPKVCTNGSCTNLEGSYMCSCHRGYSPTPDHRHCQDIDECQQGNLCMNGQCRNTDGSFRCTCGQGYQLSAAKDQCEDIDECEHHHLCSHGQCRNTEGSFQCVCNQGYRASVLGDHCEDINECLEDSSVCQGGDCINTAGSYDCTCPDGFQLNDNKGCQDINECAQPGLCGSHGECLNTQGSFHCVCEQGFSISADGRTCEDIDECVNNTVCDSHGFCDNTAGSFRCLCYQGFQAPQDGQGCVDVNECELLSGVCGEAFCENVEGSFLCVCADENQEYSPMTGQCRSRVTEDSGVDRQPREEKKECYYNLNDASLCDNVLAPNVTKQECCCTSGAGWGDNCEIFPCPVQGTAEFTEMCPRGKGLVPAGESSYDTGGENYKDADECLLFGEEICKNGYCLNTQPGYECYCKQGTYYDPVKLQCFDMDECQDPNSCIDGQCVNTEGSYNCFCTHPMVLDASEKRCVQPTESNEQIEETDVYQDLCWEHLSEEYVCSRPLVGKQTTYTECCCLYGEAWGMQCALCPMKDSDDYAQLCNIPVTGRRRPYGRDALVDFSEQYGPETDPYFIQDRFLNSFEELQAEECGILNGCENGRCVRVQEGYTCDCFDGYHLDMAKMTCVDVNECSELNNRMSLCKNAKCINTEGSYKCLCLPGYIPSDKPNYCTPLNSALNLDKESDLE

Regarding `CC(=O)N[C@@H](CS)C(=O)O` [NAC, N-acetylcysteine], the “TGF-β1 activation (active TGF-β1 levels) in PRP” value at TGF-β1 is “much lower”. Moreover, the liver damage result in data set [1] (taken 4 hours after alcohol, dose-dependent) is “made liver damage worse”. Moreover, in data set [1] (taken before alcohol), the liver damage entry is recorded as “prevented liver damage”. In addition, the cardiac fibrosis result in data set [2] is on record as “inhibits cardiac fibrosis”. For the same compound, in data set [3], the AS progression entry is recorded as “little to no further reduction; also recorded: did not show any effect”. For the same compound, the Urine excretion in data set [4] (in vivo) is on record as 22-30%. In data set [4] (liver), the metabolism entry is listed as “extensively liver metabolized”. In addition, in data set [5], the aortic valve area result was “reduced”, the “fibrosis in aortic valves” value is “reduced” and the “p-Smad2 staining in aortic valves” value was “reduced”.
